The text below walks through data of patent US12252457B2, “Compositions and methods for reducing tactile dysfunction, anxiety, and social impairment” (President and Fellows of Harvard College, priority 2018, dated 2025).

SMILES strings stand for the structures. Read-outs that look alike come from different tables or passages of the source.

In data set [1] the target is T1, Transporter, GABA (Rattus norvegicus, UniProt P23978).
T1 construct: tissue Eurofins Panlabs 226400; host or cells: rat brain membranes (own knowledge of the vendor's assay and of the cited Shank et al. 1990 method)
The data set is described as follows: GABA transporter radioligand binding assay (Cat # 226400). The note with it: reference compound, batch 424211; read-out: Concurrent IC50. How it is done:
The activity of compound Compound 5 was evaluated in Radioligand Binding assays. Methods employed herein have been adapted from the scientific literature to maximize reliability and reproducibility. Reference standards were run as an integral part of each assay to ensure the validity of the results obtained. Where presented, IC50 values were determined by a non-linear, least squares regression analysis using MathIQ™ (ID Business Solutions Ltd., UK). Where inhibition constants (K) are presented, the Ki values were calculated using the equation of Cheng and Prusoff (Cheng, Y., Prusoff, W. H., Biochem. Pharmacol. 22:3099-3108, 1973) using the observed IC50 of the tested compound, the concentration of radioligand employed in the assay, and the historical values for the KD of the ligand (obtained experimentally at Eurofins Panlabs, Inc.). Where presented, the Hill coefficient (nH), defining the slope of the competitive binding curve, was calculated using MathIQ™. […] Where IC50, Ki and/or nH data are presented without Standard Error of the Mean (SEM), data are insufficient to be quantitative.
Biochemical assay results are presented as the percent inhibition of specific binding or activity. All other results are expressed in terms of the quantitation method of that assay. For primary assays, only the lowest concentration with a significant response, judged by the criteria of the assay, is shown in this summary. […] Unless otherwise requested, primary screening in duplicate with quantitative data (e.g., IC50±SEM, Ki ±SEM and nH) are shown where applicable for individual requested assays.
J Neurochem. 54:2007-2015.

The target of data set [2] is T1, Transporter, GABA. The following applies: reference compound, historical value; cited from earlier work.
The subject of data set [3] is genetic and environmental mouse models of ASD. Briefly: Tactile PPI, air puff response and startle amplitude after acute midazolam or isoguvacine in ASD mouse models. The data set is classed as in vivo. The following applies: 2 mg/kg i.p. How it is done:
FIGS. 19A-19N show acute administration of the peripherally-restricted GABAA receptor agonist isoguvacine improves tactile hypersensitivity in five genetic and one environmental model of ASD. […] Two-way ANOVA with post-hoc Sidak's test, *, p<0.05. FIG. 19B: Response to a light air puff stimulus alone in mice following i.p. administration of either saline or 2 mg/kg midazolam treatment. Responses are expressed as percent of startle response to a 125 dB noise. Two-way ANOVA with post-hoc Sidak's test, *, p<0.05. FIG. 19C: Magnitude of startle response to a 125 dB noise in mice following i.p. administration of either saline or 2 mg/kg midazolam treatment. Responses are expressed as percent of startle response to a 125 dB noise. Two-way ANOVA with post-hoc Sidak's test, *, p<0.05. FIG. 19D: Magnitude of startle response to a 125 dB noise in mice following i.p. administration of saline, midazolam (2 mg/kg) or a peripherally-restricted GABAA receptor agonist, isoguvacine (2 mg/kg). Responses are expressed as percent of startle response to a 125 dB noise. Two-way ANOVA with post-hoc Sidak's test, *, p<0.05. FIGS. 19E-19G: Liquid chromatography mass spectrometry (LC-MS) quantified isoguvacine concentrations in cerebrospinal fluid (CSF) (FIG. 19E), blood (FIG. 19F) or liver (FIG. 19G) samples of mice treated with: i.p. saline, i.p. isoguvacine (“Iso.”, 20 mg/kg, samples collected 1, 3 or 24 hours post-injection), intracerebral injection isoguvacine (20 mg/kg, 1 hour post-injection), i.p. diazepam (“DZ”, 20 mg/kg, 1 hour post injection) or intracerebral injection diazepam (20 mg/kg, 1 hour post injection). FIG. 19H: Normalized peak chloride flux through α1β3γ2- and α2β3γ2-containing GABAA receptors in response to isoguvacine application. […] FIGS. 19I-19K: GABAA receptor subunit RNA expression levels across peripheral somatosensory neuron subtypes, for the alpha (FIG. 19I), beta (FIG. 19J), and gamma (FIG. 19K) subunit types. […] Two-way ANOVA with post-hoc Sidak's test, *, p<0.05. FIG. 19M: Response to a light air puff stimulus alone in mice following i.p. administration of either saline or 2 mg/kg isoguvacine treatment. Responses are expressed as percent of startle response to a 125 dB noise. Two-way ANOVA with post-hoc Sidak's test, *, p<0.05. FIG. 19N: Magnitude of startle response to a 125 dB noise in mice following i.p. administration of either saline or 2 mg/kg isoguvacine treatment. Responses are expressed as percent of startle response to a 125 dB noise. Two-way ANOVA with post-hoc Sidak's test, *, p<0.05.
Results of the GABAA receptor restoration experiments raised the possibility that pharmacological treatment with a GABAA receptor agonist may improve tactile reactivity in Mecp2 mutant mice. It was therefore tested whether benzodiazepines, which are positive allosteric modulators (PAMs) of GABAA receptors, would attenuate hairy skin hypersensitivity in Mecp2 mutant mice. Advillin^Cre; Mecp2^f/y mutant mice and their control littermates were administered either vehicle alone or the benzodiazepine midazolam (2 mg/kg, i.p.) in a pseudorandomized manner, and then subjected to tactile PPI. On the following day, treatment regimens were reversed, and tactile PPI was repeated.
While traditional blood-brain barrier (BBB) penetrating benzodiazepines and non-benzodiazepine GABAA receptor PAMs are useful for treating some ASD-related symptoms in patients, including acute anxiety, significant adverse effects including sedation and addictive potential are common (Gudex, 1991). Furthermore, long-term benzodiazepine use is linked to cognitive impairment across multiple domains, including short-term verbal memory and attention (Golombok et al., 1988; Tata et al., 1994), leading to general reluctance within the medical community for prescribing benzodiazepines and other GABAA receptor PAMs to young children (Howes et al., 2018). […]

In the case of `O=C(O)C1=CCCN(CCON=C(c2ccccc2)c2ccccc2)C1` [NO-711], the concentration for half-maximal inhibition (IC50) on Transporter, GABA [1] is 0.17 µM. Also, on Transporter, GABA [2], the “Historical nH” value was 1.10, the IC50 is 0.2 µM and the Ki is 0.2 µM.

On to `Cc1ncc2n1-c1ccc(Cl)cc1C(c1ccccc1F)=NC2` [midazolam], for which the “tactile sensitivity (tactile PPI)” value in data set [3] (Advillin^Cre, Mecp2^f/y mutants and controls) is “significantly attenuated tactile sensitivity”. In addition, the “reduction in startle amplitude (sedation)” value in data set [3] (all mice, 125 dB noise) is given as around 50%.

As usually defined, the IC50 is the concentration at which inhibition is half-maximal. For orientation: Ki means a dissociation constant, usually derived from enzyme kinetics or from competition with a known ligand.
